Reference: patent EP4289427A1, “DIHYDRO[1,8]NAPHTHYRIDIN-7-ONE AND PYRIDO[3,2-B][1,4]OXAZIN-3-ONE FOR USE IN TREATING CANCER, AND METASTASES IN PARTICULAR” (Anagenesis Biotechnologies, priority 2022, dated 2023)

Assays:
RD cells [1] = assay: Differentiation of RD cells into myotubes (alpha-actinin staining); assay type: cell-based, Human; details: 7 days, Figure 3
Description: RD cells are cancer cells of muscle origin that arose from myogenic precursors that fail to complete muscle differentiation. One strategy to stop their progression is to differentiate them into myotubes.
To allow differentiation, RD cells were seeded at a density of 3500 cells/well in a 384-well plate coated with collagen type I, in DMEM (4,5g/L glucose) with L-Gln (cat.no. 41965-039 from Gibco) supplemented with 5% of knockout serum replacement (cat.no. 10828-028 from Gibco), 1% PenStrep (Gibco), 1% MEM NEAA (Gibco) and 0.1 mM 2-mercaptoethanol (Gibco) (hereafter "K5 medium"). Compounds to be tested were then added onto the cells and incubated for 7 days at 37°C. On day 7, cells were fixed with 4% paraformaldehyde solution and immunostained for α-actinin (cat.no. EA-53 from Sigma, at 1/30000).

MDA-MB-231 cells [2] = assay: Cytotoxicity assay (CellTiter-Glo 2.0) on MDA-MB-231 cells; assay type: cell-based, Human; details: incubation 3 days; for IC50: Homo sapiens, 72 h
Method in brief: (§1)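 Viability was measured as ATP-based bioluminescence (CellTiter-Glo 2.0) after compound treatment, with medium and exposure time set per cell line. Relative IC50 values were then calculated.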

EoL-1 cells = assay: Cytotoxicity assay (CellTiter-Glo 2.0) on EoL-1 cells; assay type: cell-based, Human; details: incubation 1 day; for IC50: Homo sapiens, EOL1, 24 h
Method in brief: as §1

HUVECs = assay: Tube formation assay (anti-angiogenic activity); assay type: cell-based, human; details: incubation 16 to 18 hours; for IC50: Homo sapiens, HUVEC
Method in brief: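 HUVECs plated at 5000 cells/well on reduced growth factor basement membrane matrix, then exposed to compounds for 16 to 18 hours at 37°C. Cells stained with calcein-AM; tube networks imaged by confocal fluorescence microscopy and quantified.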

RD cells [3] = assay: Cytotoxicity assay (CellTiter-Glo 2.0) on RD cells; assay type: cell-based, Human; details: for IC50: Homo sapiens
Method in brief: as §1

MDA-MB-231 cells [4] = assay: Scratch (wound healing) assay, cell migration; assay type: cell-based, Human; details: 24 hours, Figure 1
Description: Cell migration is involved in several pathological cancer processes such as tumor invasion, neoangiogenesis and metastasis. Scratch (or wound healing) assay is a method to study two-dimensional cell migration in vitro. It is based on the observation that cells growing in a monolayer migrate to reestablish cell contacts after a mechanical scratch wound.
The MDA-MB-231 cells were seeded into a 24-well plate and grown to confluent density. A scrape was made in each well using a pipette tip. Then, the cells monolayers were incubated for 2 hours with 5 µg/ml mitomycin C to stop cell proliferation. The cells were treated with the compounds to be tested for 24 hours. The cells were stained using CellMask Green actin tracking stain (cat.no. A57246 from Fisher Scientific) at time zero and at endpoint. Pictures were acquired using a fluorescence microscope (IXM from Molecular Device). The scratch area was measured with the ImageJ software. The recovery of the scratch area was calculated as a percentage of the scratch area at time zero.

4T1 cells [5] = assay: Colony forming (clonogenic) assay; assay type: cell-based, Mouse; details: 6 days of treatment, Figure 2
Description: Cancer stem cells are characterized by their ability to undergo virtually unlimited divisions. Colony forming assay (or clonogenic assay) is an in vitro assay designed to assess capability of single cells to grow into large colonies through clonal expansion.
4T1 cells were seeded at a density of 500 cells per well of six-well plates in 4T1 medium. Compounds to be tested were added 24 hours after seeding. After 6 days of treatment, the cells were fixed in 4% PFA and stained with 1% aqueous solution of crystal violet. Pictures of the entire wells were acquired, and the area of the positives colonies was evaluated by ImageJ software (Wayne Rasband; NIH).

4T1 cells [6] = assay: Cytotoxicity assay (CellTiter-Glo 2.0) on 4T1 cells; assay type: cell-based, Mouse; details: incubation 2 days; for IC50: Mus musculus, 48 h
Method in brief: as §1

4T1 cells [7] = assay: Epithelial-mesenchymal transition marker expression by qRT-PCR; assay type: cell-based, Mouse; set-up: key: ↗: increased expression; ↘: decreased expression; =: unchanged expression levels; details: 24 hours, expression normalized against RPL13
Excerpt: The epithelial-mesenchymal transition (hereafter "EMT") is a process by which epithelial cells lose their cell polarity and cell-cell adhesion while gaining migratory and invasive properties to become mesenchymal stem cells. EMT is commonly measured by quantifying both epithelial and mesenchymal marker's expression by quantitative reverse-transcription polymerase chain reaction (hereafter "qRT-PCR"). EMT inhibition is observed when epithelial markers are stable or increased while mesenchymal markers are decreased.
4T1 cells were treated with compounds to be tested or DMSO for 24 hours. 4T1 cells were then harvested directly in NucleoZol lysis buffer (cat. no. 740404.200 from Macherey-Nagel), according to the manufacturer's instructions. Total RNA was extracted using the NucleoSpin RNA set for NucleoZol (cat. no. 740406.50 from Macherey-Nagel). The quantity and purity of RNA was determined using a Quickdrop (Molecular Devices). RT-PCR was performed on 500 ng total RNA using iScript gDNA clear cDNA synthesis Kit (cat.no. 1725035 from Biorad). The qPCR was run on a QuantStudio 5 real time thermocycler (Applied Biosystems), with PowerUp SYBR Green Master Mix (cat.no. A25742 from Fisher Scientific) and the primers listed in Table 16.
Expression data of EMT markers have been normalized against expression data of the housekeeping gene RPL13.

HEC-1A = assay: Cytotoxicity assay on KRAS mutated HEC-1A cells; assay type: cell-based, Human; details: incubation 2 days
Description: (§2) Cytotoxicity assays consist in treating cells with compounds and assessing remaining viability after a defined incubation time, depending on the cell line. CellTiter-Glo® 2.0 reagent allows viability measurement by quantification of ATP present, which is an indicator of metabolically active cells.
(§3) The cancer cell lines were cultivated in their respective growth medium (see tables 6a and 6b). On day 0 of the cytotoxicity assay, the cells were harvested and seeded into a 384-well plate at a defined density in their respective growth medium (see tables 6a and 6b). Compounds to be tested were then added onto the cells and incubated for a defined duration (see tables 6a and 6b). Following incubation, CellTiter-Glo® 2.0 reagent (cat.no. G9241 from Promega) was added into the wells (vol/vol, according to the manufacturer's recommendations), plates were gently shaken and incubated for 10 minutes in the dark at room temperature. Bioluminescence was then measured with a multimode plate reader (Victor Nivo from Perkin Elmer), and cell viability and relative IC50 were determined. Table 6a: Cancer cell characteristics, culture and cytotoxic assay conditions

PSN1 = assay: Cytotoxicity assay on KRAS mutated PSN1 cells; assay type: cell-based, Human; details: incubation 2 days
Description: as §2, §3

HCT116 = assay: Cytotoxicity assay on KRAS mutated HCT116 cells; assay type: cell-based, Human; details: incubation 2 days
Description: as §2, §3

Mia PaCa-2 = assay: Cytotoxicity assay on KRAS mutated Mia PaCa-2 cells; assay type: cell-based, Human; details: Mia PaCa-2, KRAS mutated, incubation 2 days
Description: as §2, §3

A549 = assay: Cytotoxicity assay on KRAS mutated A549 cells; assay type: cell-based, Human; details: incubation 2 days
Description: as §2, §3

SW480 = assay: Cytotoxicity assay on KRAS mutated SW480 cells; assay type: cell-based, Human; details: incubation 2 days
Description: as §2, §3

RPMI 8226 = assay: Cytotoxicity assay on KRAS mutated RPMI 8226 cells; assay type: cell-based, Human; details: RPMI 8226, KRAS mutated, incubation 2 days
Description: as §2, §3

For `CSc1cc(Oc2ccnc3c2OCC(=O)N3)ccc1NC(=O)Nc1cc(C(C)(C)C)nn1-c1ccccc1` [Compound 006, 1-(3-(tert-butyl)-1-phenyl-1H-pyrazol-5-yl)-3-(2-(methylthio)-4-((3-oxo-3,4-dihydro-2H-pyrido[3,2-b][1,4]oxazin-8-yl)oxy)phenyl)urea], which differentiation into myotubes (RD cells [1]) is on record?
Its differentiation into myotubes is “dose-dependent differentiation into myotubes”.

What about the IC50 (MDA-MB-231 cells [2]) of the same compound?
Its IC50 is 1 to 5 µM.

And the Cytotoxicity (MDA-MB-231 cells [2])?
Its Cytotoxicity is “++ (50% ≤ cytotoxicity < 85%)”.

What about the IC50 (EoL-1 cells) of the same compound?
The IC50 was 0.01 to 0.1 µM.

And the Cytotoxicity (EoL-1 cells)?
Its Cytotoxicity is “+++ (cytotoxicity ≥ 85%)”.

What about the IC50 (HUVECs) of the same compound?
The IC50 was 0.1 to 0.5 µM.

What about the Angiogenesis inhibition (HUVECs) of the same compound?
The Angiogenesis inhibition was “+++ (angiogenesis inhibition ≥ 80%)”.

And the Cytotoxicity (RD cells [3]; 2 day-treatment)?
The Cytotoxicity was “++ (50% ≤ cytotoxicity < 85%)”.

What about the Cytotoxicity (RD cells [3]; 4 day-treatment) of the same compound?
Its Cytotoxicity is “++ (50% ≤ cytotoxicity < 85%)”.

What about the IC50 (RD cells [3]; 48 h, 2 day-treatment) of the same compound?
The IC50 was 1 to 5 µM.

And the IC50 (RD cells [3]; 96 h, 4 day-treatment)?
The IC50 was 1 to 5 µM.

What about the “migration in the scratch assay” value (MDA-MB-231 cells [4]) of the same compound?
The value was “inhibition of their migration”.

And the colony growth (4T1 cells [5])?
The colony growth was “inhibition of colony growth”.

What about the IC50 (4T1 cells [6]) of the same compound?
Its IC50 is 1 to 5 µM.

What about the Cytotoxicity (4T1 cells [6]) of the same compound?
The Cytotoxicity was “+++ (cytotoxicity ≥ 85%)”.

What about the “Epithelial markers E-cadherin” value (4T1 cells [7]) of the same compound?
The value was “↗”.

What about the “Epithelial markers EpCAM” value (4T1 cells [7]) of the same compound?
Its value is “↗”.

What about the “Mesenchymal markers Fibronectin” value (4T1 cells [7]) of the same compound?
The value was “↘”.

And the “Mesenchymal markers Vimentin” value (4T1 cells [7])?
Its value is “↘”.

Which results are given for `Cc1ccc(-n2nc(C(C)(C)C)cc2NC(=O)Nc2ccc(Oc3ccnc4c3CCC(=O)N4)cc2C(F)(F)F)cn1` [Compound 017, 1-[5-tert-butyl-2-(6-methyl-3-pyridyl)pyrazol-3-yl]-3-[4-[(7-oxo-6,8-dihydro-5H-1,8-naphthyridin-4-yl)oxy]-2-(trifluoromethyl)phenyl]urea]?
IC50 (MDA-MB-231 cells [2]): 1 to 5 µM; Cytotoxicity (MDA-MB-231 cells [2]): ++ (50% ≤ cytotoxicity < 85%); IC50 (EoL-1 cells): 0.001 to 0.01 µM; Cytotoxicity (EoL-1 cells): ++ (50% ≤ cytotoxicity < 85%); IC50 (HUVECs): < 0.1 µM; Angiogenesis inhibition (HUVECs): +++ (angiogenesis inhibition ≥ 80%); Cytotoxicity (RD cells [3]; 2 day-treatment): ++ (50% ≤ cytotoxicity < 85%); Cytotoxicity (RD cells [3]; 4 day-treatment): +++ (cytotoxicity ≥ 85%); IC50 (RD cells [3]; 48 h, 2 day-treatment): 1 to 5 µM; IC50 (RD cells [3]; 96 h, 4 day-treatment): 1 to 5 µM; migration in the scratch assay (MDA-MB-231 cells [4]): inhibition of their migration; colony growth (4T1 cells [5]): inhibition of colony growth; IC50 (4T1 cells [6]): < 1 µM; Cytotoxicity (4T1 cells [6]): +++ (cytotoxicity ≥ 85%); Epithelial markers E-cadherin (4T1 cells [7]): ↗; Epithelial markers EpCAM (4T1 cells [7]): ↗; Mesenchymal markers Fibronectin (4T1 cells [7]): ↘; Mesenchymal markers Vimentin (4T1 cells [7]): ↘

Which results are given for `CSc1cc(Oc2ccnc3c2OCC(=O)N3)ccc1NC(=O)Nc1cc(C(C)(C)C)no1` [Compound 020, 1-(3-tert-butylisoxazol-5-yl)-3-[2-methylsulfanyl-4-[(3-oxo-4H-pyrido[3,2-b][1,4]oxazin-8-yl)oxy]phenyl]urea]?
IC50 (HEC-1A; Homo sapiens, 48 h): < 1 µM; Cytotoxicity (HEC-1A): ++ (50% ≤ cytotoxicity < 85%); IC50 (MDA-MB-231 cells [2]): < 1 µM; Cytotoxicity (MDA-MB-231 cells [2]): ++ (50% ≤ cytotoxicity < 85%); IC50 (PSN1; Homo sapiens, 48 h): < 1 µM; Cytotoxicity (PSN1): +++ (cytotoxicity ≥ 85%); IC50 (EoL-1 cells): < 0.001 µM; Cytotoxicity (EoL-1 cells): +++ (cytotoxicity ≥ 85%); IC50 (HCT116; Homo sapiens, HCT-116, 48 h): < 1 µM; Cytotoxicity (HCT116): +++ (cytotoxicity ≥ 85%); IC50 (HUVECs): < 0.1 µM; Angiogenesis inhibition (HUVECs): +++ (angiogenesis inhibition ≥ 80%); IC50 (Mia PaCa-2; Homo sapiens, 48 h): < 1 µM; Cytotoxicity (Mia PaCa-2): +++ (cytotoxicity ≥ 85%); Cytotoxicity (RD cells [3]; 2 day-treatment): ++ (50% ≤ cytotoxicity < 85%); Cytotoxicity (RD cells [3]; 4 day-treatment): ++ (50% ≤ cytotoxicity < 85%); IC50 (RD cells [3]; 48 h, 2 day-treatment): 1 to 5 µM; IC50 (RD cells [3]; 96 h, 4 day-treatment): < 1 µM; IC50 (A549; Homo sapiens, 48 h): < 1 µM; Cytotoxicity (A549): ++ (50% ≤ cytotoxicity < 85%); IC50 (SW480; Homo sapiens, 48 h): < 1 µM; Cytotoxicity (SW480): ++ (50% ≤ cytotoxicity < 85%); IC50 (4T1 cells [6]): 1 to 5 µM; Cytotoxicity (4T1 cells [6]): +++ (cytotoxicity ≥ 85%); IC50 (RPMI 8226; Homo sapiens, 48 h): < 1 µM; Cytotoxicity (RPMI 8226): ++ (50% ≤ cytotoxicity < 85%); Epithelial markers E-cadherin (4T1 cells [7]): ↗; Epithelial markers EpCAM (4T1 cells [7]): =; Mesenchymal markers Fibronectin (4T1 cells [7]): ↘; Mesenchymal markers Vimentin (4T1 cells [7]): ↘
